Columns and labels:
Assay in all cases: Kinobeads elution with test compound, mouse brain lysate, MS
Type in all cases: binding
Settings in all cases: kinase released from kinobeads by specific elution
PAK5 = biological target: T1, PAK5 (Mus musculus, UniProt Q8C015)
T1 construct: from tissue; host or cells: mouse brain
In short: (§1)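 Kinobeads preloaded with mouse brain lysate under near-physiological buffer conditions were washed gently, then eluted for 30 min at 4° C with elution buffer holding 1.0 mM test compound; DMSO or DMF (2%) buffer served as control. Released proteins were reduced, alkylated, gel-separated and identified by mass spectrometry.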

PKCa = biological target: T2, PKCa (Mus musculus, UniProt P20444)
T2 construct: from tissue; host or cells: mouse brain
In short: as §1

PKCg = biological target: T3, PKCg (Mus musculus, UniProt P63318)
T3 construct: from tissue; host or cells: mouse brain
In short: as §1

TBK1 = biological target: T4, TBK1 (Mus musculus, UniProt Q9WUN2)
T4 construct: from tissue; host or cells: mouse brain
In short: as §1

BRAFps = system: BRAFps
In short: as §1

AMPKa1 = AMPKa1 (Mus musculus, UniProt Q5EG47)
In short: as §1

LIMK1ps = system: LIMK1ps
In short: as §1

NEK9 = biological target: T5, NEK9 (Mus musculus, UniProt Q8K1R7)
T5 construct: from tissue; host or cells: mouse brain
In short: as §1

ALK2 = ALK2 (Mus musculus, UniProt P37172)
In short: as §1

LYN = biological target: T6, LYN (Mus musculus, UniProt P25911)
T6 construct: from tissue; host or cells: mouse brain
In short: as §1

QSK = biological target: T7, QSK (Mus musculus, UniProt Q6P4S6)
T7 construct: from tissue; host or cells: mouse brain
In short: as §1

T1 sequence (Q8C015 whole entry): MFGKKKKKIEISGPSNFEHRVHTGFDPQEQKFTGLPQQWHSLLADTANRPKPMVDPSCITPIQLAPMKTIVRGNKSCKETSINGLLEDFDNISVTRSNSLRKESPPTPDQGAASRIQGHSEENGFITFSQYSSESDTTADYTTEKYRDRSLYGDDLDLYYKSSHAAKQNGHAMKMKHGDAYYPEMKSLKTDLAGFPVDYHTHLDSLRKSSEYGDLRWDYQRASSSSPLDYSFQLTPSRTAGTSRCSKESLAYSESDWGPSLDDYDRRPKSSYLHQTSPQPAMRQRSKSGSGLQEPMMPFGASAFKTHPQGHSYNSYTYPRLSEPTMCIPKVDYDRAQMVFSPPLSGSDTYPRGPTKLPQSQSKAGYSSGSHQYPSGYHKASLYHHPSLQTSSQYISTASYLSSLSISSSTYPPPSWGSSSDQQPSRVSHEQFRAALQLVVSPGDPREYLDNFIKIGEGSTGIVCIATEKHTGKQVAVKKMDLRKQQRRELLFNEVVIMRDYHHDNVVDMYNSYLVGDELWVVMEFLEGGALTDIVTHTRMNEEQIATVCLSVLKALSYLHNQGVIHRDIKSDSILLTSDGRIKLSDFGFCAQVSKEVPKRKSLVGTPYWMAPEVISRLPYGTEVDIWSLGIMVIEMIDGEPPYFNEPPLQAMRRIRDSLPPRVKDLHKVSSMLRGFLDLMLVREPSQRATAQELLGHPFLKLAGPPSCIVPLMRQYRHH
ALK2, sequence (P37172 21-509): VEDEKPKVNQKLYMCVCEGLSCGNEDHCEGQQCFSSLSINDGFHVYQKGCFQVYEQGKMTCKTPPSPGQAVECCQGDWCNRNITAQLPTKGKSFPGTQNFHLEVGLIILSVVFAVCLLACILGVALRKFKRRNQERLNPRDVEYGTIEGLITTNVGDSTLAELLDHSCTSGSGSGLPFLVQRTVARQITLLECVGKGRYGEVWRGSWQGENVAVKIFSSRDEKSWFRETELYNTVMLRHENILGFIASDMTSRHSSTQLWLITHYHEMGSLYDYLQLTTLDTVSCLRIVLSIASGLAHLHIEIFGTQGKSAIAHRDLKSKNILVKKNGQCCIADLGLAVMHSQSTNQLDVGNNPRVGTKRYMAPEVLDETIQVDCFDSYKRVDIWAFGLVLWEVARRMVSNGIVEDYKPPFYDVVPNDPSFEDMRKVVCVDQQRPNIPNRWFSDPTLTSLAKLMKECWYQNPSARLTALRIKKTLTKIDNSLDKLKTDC
T6 sequence (P25911 whole entry): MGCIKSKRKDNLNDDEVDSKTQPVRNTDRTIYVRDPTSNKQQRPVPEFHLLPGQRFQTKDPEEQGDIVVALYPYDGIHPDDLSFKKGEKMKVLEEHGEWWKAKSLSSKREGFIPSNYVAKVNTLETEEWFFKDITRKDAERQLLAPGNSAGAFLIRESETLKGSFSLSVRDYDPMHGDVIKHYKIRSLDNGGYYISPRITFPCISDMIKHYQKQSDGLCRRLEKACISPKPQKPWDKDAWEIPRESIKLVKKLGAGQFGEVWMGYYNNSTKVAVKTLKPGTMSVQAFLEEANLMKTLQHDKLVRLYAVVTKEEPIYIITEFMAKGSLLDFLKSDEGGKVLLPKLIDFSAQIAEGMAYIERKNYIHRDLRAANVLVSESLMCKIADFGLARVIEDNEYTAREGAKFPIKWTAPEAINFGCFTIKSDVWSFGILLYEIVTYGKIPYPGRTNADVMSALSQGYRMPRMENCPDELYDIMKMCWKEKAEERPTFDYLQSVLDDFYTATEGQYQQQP
T4 sequence (Q9WUN2 whole entry): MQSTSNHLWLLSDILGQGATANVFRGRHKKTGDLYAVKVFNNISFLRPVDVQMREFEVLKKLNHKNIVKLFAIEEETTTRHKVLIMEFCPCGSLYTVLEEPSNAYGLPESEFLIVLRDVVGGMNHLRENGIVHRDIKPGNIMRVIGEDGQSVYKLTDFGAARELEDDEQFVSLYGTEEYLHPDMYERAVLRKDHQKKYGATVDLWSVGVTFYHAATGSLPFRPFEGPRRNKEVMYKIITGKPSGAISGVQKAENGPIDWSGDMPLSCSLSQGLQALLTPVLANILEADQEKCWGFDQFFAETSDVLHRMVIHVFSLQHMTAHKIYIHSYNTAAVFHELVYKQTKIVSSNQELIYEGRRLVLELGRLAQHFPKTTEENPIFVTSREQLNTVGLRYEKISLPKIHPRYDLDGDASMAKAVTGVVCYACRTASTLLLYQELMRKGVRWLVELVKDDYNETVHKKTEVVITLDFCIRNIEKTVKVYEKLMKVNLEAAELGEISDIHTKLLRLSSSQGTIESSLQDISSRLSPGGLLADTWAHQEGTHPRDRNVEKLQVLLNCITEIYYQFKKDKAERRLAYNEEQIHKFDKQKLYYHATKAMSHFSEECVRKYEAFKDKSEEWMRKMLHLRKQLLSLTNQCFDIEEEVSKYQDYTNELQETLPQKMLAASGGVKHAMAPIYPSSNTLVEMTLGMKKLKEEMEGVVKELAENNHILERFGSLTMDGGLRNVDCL
T5 sequence (Q8K1R7 whole entry): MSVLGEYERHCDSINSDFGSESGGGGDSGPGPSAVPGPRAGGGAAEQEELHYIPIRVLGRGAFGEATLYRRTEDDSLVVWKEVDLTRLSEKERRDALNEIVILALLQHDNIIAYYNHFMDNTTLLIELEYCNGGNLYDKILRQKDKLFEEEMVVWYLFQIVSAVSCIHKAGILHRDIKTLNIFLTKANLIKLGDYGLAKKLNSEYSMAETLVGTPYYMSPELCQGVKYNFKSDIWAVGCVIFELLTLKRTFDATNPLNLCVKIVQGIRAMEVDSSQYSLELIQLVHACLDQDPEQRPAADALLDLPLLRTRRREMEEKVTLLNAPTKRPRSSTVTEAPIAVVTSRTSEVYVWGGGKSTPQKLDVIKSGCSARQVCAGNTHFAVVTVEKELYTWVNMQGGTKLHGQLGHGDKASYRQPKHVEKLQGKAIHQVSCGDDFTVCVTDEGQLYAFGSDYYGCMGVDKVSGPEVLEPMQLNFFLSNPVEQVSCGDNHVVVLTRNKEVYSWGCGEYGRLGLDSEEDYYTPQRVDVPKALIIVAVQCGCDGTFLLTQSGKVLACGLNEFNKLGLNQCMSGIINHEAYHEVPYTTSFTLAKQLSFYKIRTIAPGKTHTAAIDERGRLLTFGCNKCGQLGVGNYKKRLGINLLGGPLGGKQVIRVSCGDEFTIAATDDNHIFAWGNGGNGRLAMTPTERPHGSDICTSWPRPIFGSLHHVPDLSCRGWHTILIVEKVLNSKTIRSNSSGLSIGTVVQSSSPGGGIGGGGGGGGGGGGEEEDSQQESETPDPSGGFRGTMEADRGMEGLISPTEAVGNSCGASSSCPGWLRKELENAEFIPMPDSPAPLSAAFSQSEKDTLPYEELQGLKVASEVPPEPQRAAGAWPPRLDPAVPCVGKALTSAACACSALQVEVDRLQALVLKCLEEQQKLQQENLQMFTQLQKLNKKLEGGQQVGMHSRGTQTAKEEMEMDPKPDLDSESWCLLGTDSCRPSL

## CNC1CC2OC(C)(C1OC)n1c3ccccc3c3c4c(c5c6ccccc6n2c5c31)C(=O)NC4 (stereo not shown) [CZC9280]
PAK5
  mass spectrometry score, PAK5: 64
  number of identified peptides, PAK5: 1
PKCa
  mass spectrometry score, PKCa: 64
  number of identified peptides, PKCa: 1
PKCg
  mass spectrometry score, PKCg: 53
  number of identified peptides, PKCg: 1
TBK1
  mass spectrometry score, TBK1: 48
  number of identified peptides, TBK1: 1

## Cn1c(=O)c(-c2c(Cl)cccc2Cl)cc2cnc(Nc3ccc(CN)cc3)cc21 [CZC7324]
BRAFps
  mass spectrometry score, BRAFps: 70
  number of identified peptides, BRAFps: 4

## NCc1ccc(Nc2ncc(F)c(Nc3ccccc3)n2)cc1 [CZC00008004]
AMPKa1
  mass spectrometry score, AMPKa1: 64
  number of identified peptides, AMPKa1: 2
LIMK1ps
  mass spectrometry score, LIMK1ps: 186
  number of identified peptides, LIMK1ps: 4
NEK9
  mass spectrometry score, NEK9: 61
  number of identified peptides, NEK9: 2

## CCCCCCCCCCCCOS(=O)(=O)[O-].[Na+] [SDS]
ALK2
  mass spectrometry score, ALK2: 65
  number of identified peptides, ALK2: 2
LYN
  mass spectrometry score, LYN: 134
  number of identified peptides, LYN: 6
QSK
  mass spectrometry score, QSK: 153
  number of identified peptides, QSK: 7
